Read-outs that look alike come from different tables or passages of the source. Peptide text beside a SMILES is read from it.
What was measured:
[1] = tested on: Gram-negative bacteria; design: key: Xf: Xylella fastidiosa; Ec: Escherichia coli; Pa: Pseudomonas aeruginosa; Ab: Acinetobacter baumannii; Kp: Klebsiella pneumoniae; Bc: Burkholderia cenocepacia; Se: Salmonella enterica subsp. enterica; Sp: Salmonella pullorum; –: low or no activity; conditions: cited from earlier work
[2] = tested on: X. fastidiosa subsp. fastidiosa IVIA 5387.2
[3] = tested on: horse erythrocytes
[4] = tested on: X. fastidiosa subsp. fastidiosa IVIA 5387.2; type: cell-based, Xylella fastidiosa
[5] = tested on: Gram-negative bacteria; design: key: Xf: Xylella fastidiosa; Ec: Escherichia coli; Pa: Pseudomonas aeruginosa; Ab: Acinetobacter baumannii; Kp: Klebsiella pneumoniae; Bc: Burkholderia cenocepacia; Se: Salmonella enterica subsp. enterica; Sp: Salmonella pullorum; –: low or no activity; conditions: cited from earlier work; remark: listed apart in the source
[6] = tested on: X. fastidiosa subsp. fastidiosa IVIA 5387.2; type: cell-based, Xylella fastidiosa; remark: listed apart in the source

Row | Compound | Described activity: Antibacterial [1] | Bactericidal activity: Reduction in viability (Log N0/N) ([2]; 50 µM) | Hemolysis ([3]; 150 µM) | Hemolysis ([3]; 250 µM) | Hemolysis ([3]; 375 µM) | Effect on X. fastidiosa growth in the antibiofilm test ([4]; 50 µM) | Described activity: Antibiofilm [5] | Biofilm formation Level (antibiofilm activity) ([4]; 50 µM) | Biofilm formation Ratio (treatment/NTC) ([4]; 50 µM) | Planktonic cells Ratio (treatment/NTC) ([4]; 50 µM) | Bactericidal activity: Reduction in viability (Log N0/N) [2] | Biofilm formation Level (antibiofilm activity) [4] | Biofilm formation Ratio (treatment/NTC) [4] | Planktonic cells Ratio (treatment/NTC) [4] | attached biofilm cells [6] | biofilm detached cells [6] | planktonic cells [6] | log reduction of cell viability ([2]; 3 h, 50 μM)
1 | KRIVKLILKWLR-NH2 [KR-12-a5] | Ec, Pa, Se | 1.40 ± 0.07 Log N0/N | 79.0 ± 0.6% | 96.1 ± 1.8% | 100.0 ± 1.7% | affected X. fastidiosa’s growth | Pa | – | – | – | – | – | – | – | – | – | – | –
2 | CC[C@H](C)[C@H](NC(=O)[C@H](CCCNC(=N)N)NC(=O)[C@@H](N)Cc1ccccc1)C(=O)N[C@@H](CCCNC(=N)N)C(=O)N[C@H](C(=O)N[C@@H](CCCNC(=N)N)C(=O)N[C@H](C(N)=O)C(C)C)C(C)C [FV7] (H-FRIRVRV-NH2; N-terminus assumed) | Ec, Pa, Se, Sp | 0.07 ± 0.14 Log N0/N | 3.7 ± 0.4% | 4.4 ± 0.3% | 9.5 ± 1.4% | – | Ec, Pa | High (key: High: high antibiofilm activity (ratio of biofilm formation from 0.01 to 0.2); Moderate: moderate activity (ratio from 0.29 to 0.47); Low: low activity (ratio from 0.72 to 0.77)) | 0.20 ± 0.01 | 1.33 ± 0.17 | – | – | – | – | – | – | – | –
3 | CC[C@H](C)[C@H](NC(=O)[C@H](CCCNC(=N)N)NC(=O)[C@H](Cc1ccccc1)NC(=O)[C@H](CCCNC(=N)N)NC(=O)[C@@H](N)CCCCN)C(=O)N[C@@H](CCCNC(=N)N)C(=O)N[C@H](C(=O)N[C@@H](CCCNC(=N)N)C(=O)N[C@H](C(=O)N[C@H](C(=O)N[C@@H](CCCNC(=N)N)C(=O)N[C@@H](CCCCN)C(N)=O)[C@@H](C)CC)C(C)C)C(C)C [HH15] (H-KRFRIRVRVIRK-NH2) | Pa, Bc | – | 2.3 ± 0.3% | 4.5 ± 1.9% | 4.0 ± 0.4% | – | Pa, Bc | – | – | – | 0.21 ± 0.02 Log N0/N | High (key: High: high antibiofilm activity (ratio of biofilm formation from 0.01 to 0.2); Moderate: moderate activity (ratio from 0.29 to 0.47); Low: low activity (ratio from 0.72 to 0.77)) | 0.14 ± 0.01 | 2.50 ± 0.05 | – | – | – | –
4 | CC[C@H](C)[C@H](NC(=O)CN)C(=O)N[C@@H](CC(C)C)C(=O)NCC(=O)N[C@@H](CCCCN)C(=O)N[C@@H](CC(C)C)C(=O)N[C@@H](Cc1c[nH]c2ccccc12)C(=O)N[C@@H](CCC(=O)O)C(=O)NCC(=O)N[C@H](C(=O)N[C@@H](CCCCN)C(=O)N[C@@H](CO)C(=O)N[C@H](C(=O)N[C@@H](Cc1ccccc1)C(N)=O)[C@@H](C)CC)C(C)C [HP1404] (H-GILGKLWEGVKSIF-NH2) | Pa | – | 100.0 ± 0.5% | 100.0 ± 3.9% | 100.0 ± 0.7% | – | Pa | – | – | – | 0.00 ± 0.12 Log N0/N | High (key: High: high antibiofilm activity (ratio of biofilm formation from 0.01 to 0.2); Moderate: moderate activity (ratio from 0.29 to 0.47); Low: low activity (ratio from 0.72 to 0.77)) | 0.15 ± 0.01 | 2.75 ± 0.02 | – | – | – | –
5 | CC[C@H](C)[C@H](NC(=O)[C@H](CCCNC(=N)N)NC(=O)[C@H](Cc1c[nH]c2ccccc12)NC(=O)[C@H](CCC(N)=O)NC(=O)[C@@H](N)C(C)C)C(=O)N[C@@H](CCCNC(=N)N)C(=O)N[C@H](C(=O)N[C@@H](CCCNC(=N)N)C(=O)N[C@H](C(=O)N[C@H](C(=O)N[C@@H](CCCCN)C(=O)N[C@@H](CCCCN)C(N)=O)[C@@H](C)CC)C(C)C)C(C)C [Peptide 1026] (H-VQWRIRVRVIKK-NH2) | – | – | – | – | – | – | – | – | – | – | 1.03 ± 0.07 Log N0/N | High (key: High: high antibiofilm activity (ratio of biofilm formation from 0.01 to 0.2); Moderate: moderate activity (ratio from 0.29 to 0.47); Low: low activity (ratio from 0.72 to 0.77)) | – | 2.10 ± 0.05 | 0.7% | 19.8% | 79.5% | –
6 | CC[C@H](C)[C@H](NC(=O)[C@H](CCCNC(=N)N)NC(=O)[C@H](CCCNC(=N)N)NC(=O)[C@H](CC(C)C)NC(=O)[C@H](Cc1c[nH]c2ccccc12)NC(=O)[C@H](C)NC(=O)[C@H](CCCCN)NC(=O)[C@@H](NC(=O)[C@H](CCCNC(=N)N)NC(=O)[C@H](CCCNC(=N)N)NC(=O)[C@H](CC(C)C)NC(=O)[C@@H](N)Cc1c[nH]c2ccccc12)[C@@H](C)CC)C(=O)N[C@@H](CCCCN)C(=O)N[C@@H](C)C(=O)O [RR4-OH] | Pa, Ab | 1.94 ± 0.03 Log N0/N | 3.2 ± 1.0% | 9.8 ± 3.7% | 17.8 ± 0.3% | – | Pa, Ab | High (key: High: high antibiofilm activity (ratio of biofilm formation from 0.01 to 0.2); Moderate: moderate activity (ratio from 0.29 to 0.47); Low: low activity (ratio from 0.72 to 0.77)) | 0.09 ± 0.01 | 1.87 ± 0.10 | – | – | – | – | – | – | – | –
7 | CC[C@H](C)[C@H](N)C(=O)N[C@@H](CC(C)C)C(=O)N1CCC[C@H]1C(=O)N[C@@H](Cc1c[nH]c2ccccc12)C(=O)N[C@@H](CCCCN)C(=O)N[C@@H](Cc1c[nH]c2ccccc12)C(=O)N1CCC[C@H]1C(=O)N[C@@H](Cc1c[nH]c2ccccc12)C(=O)N[C@@H](Cc1c[nH]c2ccccc12)C(=O)N1CCC[C@H]1C(=O)N[C@@H](Cc1c[nH]c2ccccc12)C(=O)N[C@@H](CCCNC(=N)N)C(=O)N[C@@H](CCCNC(=N)N)C(N)=O [Indolicidin] | Xf | – | 95.1 ± 5.0% | 100.0 ± 4.4% | 100.0 ± 2.5% | – | – | – | – | – | 2.46 ± 0.11 Log N0/N | High (key: High: high antibiofilm activity (ratio of biofilm formation from 0.01 to 0.2); Moderate: moderate activity (ratio from 0.29 to 0.47); Low: low activity (ratio from 0.72 to 0.77)) | 0.09 ± 0.01 | 0.46 ± 0.07 | – | – | – | 2-3 log
8 | CC[C@H](C)[C@H](NC(=O)[C@H](CCCNC(=N)N)NC(=O)[C@@H](NC(=O)[C@H](C)NC(=O)[C@@H](NC(=O)[C@@H](NC(=O)[C@H](CC(C)C)NC(=O)[C@H](CCCNC(=N)N)NC(=O)[C@@H](N)C(C)C)[C@@H](C)CC)C(C)C)C(C)C)C(=O)N[C@@H](Cc1c[nH]c2ccccc12)C(=O)N[C@@H](CCCNC(=N)N)C(=O)N[C@@H](CCCNC(=N)N)C(N)=O [IDR-1018] (H-VRLIVAVRIWRR-NH2; N-terminus and C-terminus assumed) | Kp, Ec | 1.80 ± 0.01 Log N0/N | 35.6 ± 4.4% | 43.0 ± 0.2% | 45.9 ± 4.9% | – | Pa, Ec, Ab, Kp, Se, Bc | High (key: High: high antibiofilm activity (ratio of biofilm formation from 0.01 to 0.2); Moderate: moderate activity (ratio from 0.29 to 0.47); Low: low activity (ratio from 0.72 to 0.77)) | 0.06 ± 0.01 | 1.72 ± 0.07 | – | – | – | – | – | – | – | –
